Test results reported in US20090186915A1, “Compositions and methods for treatment of glioblastoma, gliosarcoma, NSCLC, and head and neck cancer” (Unibioscreen S. A., priority 2006, published 2009).

Assays:
DU-145 [1] = assay: Cell cycle kinetics by flow cytometry (PI), DU-145; type: cell-based, human; settings: 1 μM
Method: The cell cycle kinetics of prostate cancer cells left untreated or incubated with UNBS5162 were determined by flow cytometry analysis of propidium iodide (PI) nuclear staining, using previously detailed methodology. Each sample was evaluated in triplicate. Flow cytometry was undertaken using an Epics XL.MCL flow cytometer and the FACScan/CellQuest software system (Becton Dickinson, Miami, Fla.).

A549 = assay: MTT colorimetric assay, A549 cells; type: cell-based; settings: Homo sapiens, 72 h, 3 days of culturing, mean of six determinations, read-out: IC50 (μM) In Vitro Growth Inhibition
Method: The overall growth of human cancer cell lines was determined by means of the calorimetric MTT (3-[4,5-dimethylthiazol-2-yl]-diphenyl tetrazolium bromide; Sigma) assay, as detailed previously.

GM-CFC = assay: HALO hematotoxicity assay, mouse GM-CFC; type: cell-based; settings: 5 days culture, iATP
Method: (§1) Investigation of the hematotoxic potential of UNBS5162 was undertaken by HemoGenix (Colorado Springs, Colo.). The effects of UNBS5162 on stem and progenitor cell populations from murine and human bone marrow were assessed using HALO (Hematopoietic/Hematotoxicity Assay through Luminescence Output) technology. Stem and hematopoietic progenitor cell populations were isolated from mouse and human bone marrow samples, plated at a concentration of 1.0×10^4 cells/well and cultured for 5 and 7 days, respectively, in the presence of growth factors and increasing concentrations of UNBS5162 ranging from 0.5 nM to 50 μM. The proliferative or growth potential of cell populations was determined from intracellular ATP (iATP) concentrations and a luciferin/luciferase bioluminescence signal detection system. All samples were assayed in eight replicates. The results are presented as estimated inhibitory concentration (IC) values.

CXCL-1 and CXCL-8 = assay: ELISA of CXCL1 and CXCL8, OE21 cells; type: cell-based, human; settings: 5×1 μM
Method: ELISA determination of CXCL1 and CXCL8 (IL-8) protein levels in untreated and 5×1 μM UNBS5162-treated OE21 cells. “5×1 μM” means that tumor cells were treated in vitro for one day with 1 μM UNBS5162 and then the culture medium was replaced by fresh medium containing 1 μM UNBS5162; this procedure of renewal of cell medium containing 1 μM UNBS5162 was repeated for five consecutive days, with determination of chemokine concentration being performed 24 h (+24 h) or 72 h (+72 h) after the 5th (last) treatment of tumor cells with UNBS5162. The concentrations of the two specific chemokines (expressed as pg/mL) were normalized by the cell number determined in each sample. Each sample was assessed in triplicate. The data are presented as means (grey columns)±SEM (thin bars) in FIG. 9.

DU-145 [2] = assay: Senescence-associated β-galactosidase staining, DU-145; type: cell-based, human; settings: 10 μM, 72 hours
Text: Features typical of senescence have been induced by the compound of example 2 in human DU-145 prostate cancer cells. A senescent cell is known to typically show morphological changes, such as a flattened cytoplasm and increased granularity. The induction of senescence-associated β-galactosidase activity is a specific event occurring in cells undergoing senescence, a feature that was observed once more in the current study (according to the protocol found in Dimri et al., A biomarker that identifies senescent human cells in culture and in aging skin in vivo, Proc Natl Acad Sci USA. (1995) 92(20):9363-7), as evidenced in FIG. 4. Moderate doses (nM range) of doxorubicin (ADR) are known to induce senescence in wild-type human cancer cells. We therefore used doxorubicin as a positive control in our experiment.
After the indicated treatments, cells were washed in PBS, fixed for 3 to 5 minutes (at room temperature) in 2% formaldehyde/0.2% glutaraldehyde, washed and incubated at 37° C. […] 1995; 92:9363-9367.], after fixing and staining with X-Gal, the number of cells positive for the SA-β-Gal activity (intense blue staining) was then counted independently by two different individuals (on 400 cells/plate). […]
Human PC-3 and DU-145 prostate cancer cells cultured in 0 or 10 μM UNBS5162 or 20 nM Adriamycin for 72 hours were evaluated by SA-β-Gal staining. […]

CFC-GEMM = assay: HALO hematotoxicity assay, human CFC-GEMM; type: cell-based; settings: 7 days culture, iATP
Method: as §1

## CN(C)CCN1C(=O)c2cccc3cc(NC(N)=O)cc(c23)C1=O [UNBS5162, N-{2-[2-(dimethylamino)ethyl]-1,3-dioxo-2,3-dihydro-1H-benzo[de]isoquinolin-5-yl}urea]
DU-145 [1]
  cell cycle kinetics: did not significantly (P>0.05) modify
A549
  IC50: 21.2 µM
GM-CFC; 120 h
  IC50: 7.04 µM
  IC90: 12 µM
GM-CFC
  IC75: 9.09 µM
CXCL-1 and CXCL-8
  CXCL-1 and CXCL-8 protein levels (ELISA): a marked decrease in CXCL-1 and CXCL-8
DU-145 [2]
  senescence-associated β-galactosidase expression: induced marked expression of SA-β-Gal
DU-145 [2]; listed as example 2
  senescence-associated β-galactosidase expression: induced a similar percentage of senescence-associated β-galactosidase positive staining as 20 nM doxorubicin
CFC-GEMM; 168 h
  IC50: 2570 nM
  IC90: 12.8 µM
CFC-GEMM
  IC75: 5.67 µM
